Our source for the Ki and ED50 values is ChEMBL document CHEMBL1149936, “Discovery of selective dopamine D3 ligands: II. 2-[4-[3-(4-aryl-1-piperazinyl)propoxy]phenyl]benzimidazole partial agonists” (Bioorg Med Chem Lett, 1995).

In one test the target is D(2) dopamine receptor (Homo sapiens, UniProt P14416). Put plainly: Binding affinity towards cloned human Dopamine D2 receptor in CHO cells using [3H]spiperone as radioligand. The test is classed as cell-based.
In the next test the target is D(3) dopamine receptor (Homo sapiens, UniProt P35462). The experiment in a line: Binding affinity towards cloned human Dopamine D3 receptor in CHO cells using [3H]spiperone as radioligand. The test is classed as cell-based.
Chain of D(3) dopamine receptor (P35462 whole entry): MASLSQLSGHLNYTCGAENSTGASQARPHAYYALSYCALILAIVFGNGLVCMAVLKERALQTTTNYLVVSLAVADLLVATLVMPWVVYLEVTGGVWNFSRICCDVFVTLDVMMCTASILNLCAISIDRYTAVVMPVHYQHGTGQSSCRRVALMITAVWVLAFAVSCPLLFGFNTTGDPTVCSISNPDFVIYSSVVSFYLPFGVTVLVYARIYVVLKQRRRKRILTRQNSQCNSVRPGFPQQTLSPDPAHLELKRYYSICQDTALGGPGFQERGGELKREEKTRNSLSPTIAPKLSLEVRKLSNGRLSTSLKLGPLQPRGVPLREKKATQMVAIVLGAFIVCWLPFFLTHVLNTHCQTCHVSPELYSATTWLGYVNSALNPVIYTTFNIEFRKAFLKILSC
The next test relates to Mus musculus. The experiment in a line: Inhibitory effect on exploratory locomotor activity in mice after ip administration. It is filed as functional.
Test [1] relates to Rattus norvegicus. Put plainly: Inhibitory effect on exploratory locomotor activity in rats after ip administration. The test is classed as functional.
The test system of test [2] is Rattus norvegicus. The experiment in a line: Inhibitory effect on exploratory locomotor activity in rats at a dose of 30 mg/kg after oral administration; no effect. It is filed as functional, organism-based. More on the design: dose 30 mg/kg.

Active and inactive are the calls of the source. The calls are words filed in the database; no cut-off is given here.

Chain of D(2) dopamine receptor (P14416 whole entry): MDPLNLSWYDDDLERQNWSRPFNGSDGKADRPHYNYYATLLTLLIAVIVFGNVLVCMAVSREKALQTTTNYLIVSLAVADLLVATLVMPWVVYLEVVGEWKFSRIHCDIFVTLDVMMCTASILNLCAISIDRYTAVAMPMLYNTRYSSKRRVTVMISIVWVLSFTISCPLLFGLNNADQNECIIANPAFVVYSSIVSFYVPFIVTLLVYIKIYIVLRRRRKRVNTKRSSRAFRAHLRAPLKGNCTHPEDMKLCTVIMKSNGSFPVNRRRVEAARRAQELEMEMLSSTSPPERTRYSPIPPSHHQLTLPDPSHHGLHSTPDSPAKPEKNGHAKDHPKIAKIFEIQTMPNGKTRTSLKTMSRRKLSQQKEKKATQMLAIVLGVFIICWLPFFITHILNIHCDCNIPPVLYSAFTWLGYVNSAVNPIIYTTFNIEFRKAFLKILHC

Usually Ki stands for a dissociation constant, usually derived from enzyme kinetics or from competition with a known ligand. Low values mean a stronger hold on the target, high ones a looser hold on the target. In turn, `CCCSc1ccccc1N1CCN(CCCOc2ccc(-c3nc4ccccc4[nH]3)cc2)CC1` yielded an inhibition constant Ki on D(2) dopamine receptor of 8 nM.
As usually defined, the ED50 is the dose that gives a 50% effect, or the effect in half of the subjects. For `c1ccc(N2CCN(CCCOc3ccc(-c4nc5ccccc5[nH]4)cc3)CC2)cc1`, the Ki stood at 1.5 nM on D(3) dopamine receptor and 406 nM on D(2) dopamine receptor. Also, the ED50 came to 2.3 mg/kg in the test with Mus musculus and 7.1 mg/kg in the test with Rattus norvegicus [1]. Besides, the ED50 entry with Rattus norvegicus [2] is “inactive”.
Regarding `Clc1cccc(N2CCN(CCCOc3ccc(-c4nc5ccccc5[nH]4)cc3)CC2)c1`, the Ki at D(3) dopamine receptor is 155 nM; on D(2) dopamine receptor, 1400 nM.
`c1ccc(N2CCN(CCCOc3ccc(-c4nc5ccccc5[nH]4)cc3)CC2)nc1` had a Ki at D(2) dopamine receptor of 70 nM. That is a double-digit nanomolar value.
On to `COc1ccccc1N1CCN(CCCOc2ccc(-c3nc4ccccc4[nH]3)cc2)CC1`, for which the inhibitory constant (Ki) on D(3) dopamine receptor came out at 1.7 nM; at D(2) dopamine receptor, 8.8 nM.
For `c1cnc(N2CCN(CCCOc3ccc(-c4nc5ccccc5[nH]4)cc3)CC2)nc1`, on D(2) dopamine receptor, the inhibitory constant (Ki) came out at 269 nM. In other words, the sub-micromolar range.
`CN1CCN(CCCOc2ccc(-c3nc4ccccc4[nH]3)cc2)CC1`: the values for the Ki at D(3) dopamine receptor and on D(2) dopamine receptor were 2000 nM and greater than 3330 nM, respectively.
Consider `COc1ccc(N2CCN(CCCOc3ccc(-c4nc5ccccc5[nH]4)cc3)CC2)cc1`, for which the Ki on D(3) dopamine receptor was 130 nM; at D(2) dopamine receptor, 293 nM.
The corresponding values for `Clc1ccccc1N1CCN(CCCOc2ccc(-c3nc4ccccc4[nH]3)cc2)CC1` are 18 nM and 126 nM.
Regarding `Clc1ccc(N2CCN(CCCOc3ccc(-c4nc5ccccc5[nH]4)cc3)CC2)cc1`, the Ki at D(3) dopamine receptor amounted to 27 nM; at D(2) dopamine receptor it was 865 nM.
